This test concerns the target 11β-HSD1 (Homo sapiens, UniProt P28845). The test can be described thus: biochemical. The conditions noted are these: for pIC50: IC50 Range.
Where [1] appears, read: Biological Test Example 1, microsomes from CHO cells overexpressing human 11β-HSD1.
The mark [2] stands for this setting: read-out: Average % inhibition at 100 nM.
Setting [3] is: read-out: Average % inhibition at 111.1 nM, Biological Test Example 1, 111.1 nM compound.
[4] abbreviates: read-out: Average % inhibition at 100 nM, Biological Test Example 1, 100 nM.
The mark [5] stands for this setting: read-out: Average % inhibition at 100 nM, Biological Test Example 1, 100 nM compound.
[6] abbreviates: read-out: Average % inhibition at 111.1 nM.

Molecules are shown by their SMILES. pIC50: −log10 of the molar value. Read-outs that look alike come from different tables or passages of the source.

11β-HSD1, sequence (P28845 whole entry): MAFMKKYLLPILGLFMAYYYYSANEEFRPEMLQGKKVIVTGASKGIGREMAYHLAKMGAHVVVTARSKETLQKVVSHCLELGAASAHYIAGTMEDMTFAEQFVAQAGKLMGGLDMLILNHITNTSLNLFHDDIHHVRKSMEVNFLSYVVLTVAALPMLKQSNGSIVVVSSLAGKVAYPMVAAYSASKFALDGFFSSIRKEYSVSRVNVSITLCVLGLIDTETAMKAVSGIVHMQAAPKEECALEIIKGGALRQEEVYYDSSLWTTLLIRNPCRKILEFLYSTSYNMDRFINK

Take `C[C@@H](c1ccc(-c2ccc(F)cc2F)cc1)N1CC[C@](CCS(C)(=O)=O)(c2ccc(F)cc2)OC1=O` [EXAMPLE 229, (S)-3-((S)-1-(2′,4′-difluorobiphenyl-4-yl)ethyl)-6-(4-fluorophenyl)-6-(2-(methylsulfonyl)ethyl)-1,3-oxazinan-2-one]: under setting [1], the pIC50 (usually the negative decadic logarithm of the IC50, by convention in mol/L) was more than 7.00. For the same compound, the inhibition (commonly how much of the control response was suppressed) at 0.1 µM under setting [2] was 81.6%.

Take `CC1(c2ccccc2)CCN(c2cccc(-c3cccs3)c2)C(=O)O1` (centres unmarked) [EXAMPLE 36, 6-methyl-6-phenyl-3-(3-(thiophen-2-yl)phenyl)-1,3-oxazinan-2-one]: under setting [1], the pIC50 is more than 7.00. The inhibition at 0.1111 µM under setting [3] amounted to 63.3%.

`CC1(c2ccccc2)CCN(c2nccc(-c3c(Cl)cccc3Cl)n2)C(=O)O1` (centres unmarked) [EXAMPLE 60, 3-(4-(2,6-dichlorophenyl)pyrimidin-2-yl)-6-methyl-6-phenyl-1,3-oxazinan-2-one] had a negative-log IC50 (pIC50) under setting [1] of 6.00 to 7.00. Besides, the inhibition at 0.1111 µM under setting [3] is 51.3%.

Under setting [1], `Cc1nnc(CC[C@]2(c3ccccc3)CCN([C@@H](C)c3ccc(Br)cc3)C(=O)O2)o1` [EXAMPLE 595, (R)-3-((S)-1-(4-bromophenyl)ethyl)-6-(2-(5-methyl-1,3,4-oxadiazol-2-yl)ethyl)-6-phenyl-1,3-oxazinan-2-one] showed a pIC50 of more than 7.00. The inhibition at 0.1 µM under setting [4] is 90.6%.

Take `CC1(c2ccccc2)CCN(c2cccc(-c3ccc(CO)cc3)c2)C(=O)O1` (centres unmarked) [EXAMPLE 48, 3-(4′-(hydroxymethyl)biphenyl-3-yl)-6-methyl-6-phenyl-1,3-oxazinan-2-one]: the pIC50 under setting [1] is 6.00 to 7.00. The inhibition at 0.1111 µM under setting [3] was found to be 37%.

Turning to `C=CC[C@]1(c2ccc(F)cc2)CCN([C@@H](C)c2cccc(C(=O)OC)c2)C(=O)O1` [EXAMPLE 362, Methyl 3-((S)-1-((R)-6-allyl-6-(4-fluorophenyl)-2-oxo-1,3-oxazinan-3-yl)ethyl)benzoate], the pIC50 under setting [1] is more than 7.00. Also, the inhibition at 0.1 µM under setting [4] is 93.4%.

For the compound `CC1(c2ccccc2)CCN(c2cccc(-c3cccc(Cl)c3)c2)C(=O)O1` (centres unmarked) [EXAMPLE 24, 3-(3′-chlorobiphenyl-3-yl)-6-methyl-6-phenyl-1,3-oxazinan-2-one], the pIC50 under setting [1] is more than 7.00. Moreover, the inhibition at 0.1 µM under setting [5] is 93.4%. Under setting [3], the inhibition at 0.1111 µM came out at 86%.

Regarding `O=C1OC(CCO)(c2ccccc2F)CCN1c1ccc(Cl)c(-c2ccc(F)cc2)n1` (centres unmarked) [EXAMPLE 133, 3-(5-chloro-6-(4-fluorophenyl)pyridin-2-yl)-6-(2-fluorophenyl)-6-(2-hydroxyethyl)-1,3-oxazinan-2-one], the pIC50 under setting [1] is more than 7.00. The inhibition at 0.1 µM under setting [2] came out at 85.8%. The inhibition at 0.1111 µM under setting [6] worked out at 95.4%.

As for `Cc1cc(-c2ccc([C@H](C)N3CC[C@](CC(C)(C)O)(c4ccc(F)cc4)OC3=O)cc2)ccn1` [EXAMPLE 449, (S)-6-(4-fluorophenyl)-6-(2-hydroxy-2-methylpropyl)-3-((S)-1-(4-(2-methylpyridin-4-yl)phenyl)ethyl)-1,3-oxazinan-2-one], the inhibition at 0.1111 µM (read-out: Average % inhibition at 111.1 nM, Biological Test Example 1, 111.1 nM) amounted to 99.4%.

Compound `COc1ccc([C@H](C)N2CC[C@](CCC(N)=O)(c3ccccc3)OC2=O)cc1` [EXAMPLE 315, 3-((R)-3-((S)-1-(4-methoxyphenyl)ethyl)-2-oxo-6-phenyl-1,3-oxazinan-6-yl)propanamide] showed a pIC50 under setting [1] of more than 7.00. Further, the inhibition at 0.1 µM under setting [4] stood at 93.2%.

As for `C[C@@H](c1ccc(-c2ccc(F)cc2)cc1)N1CC[C@](CCNCCF)(c2ccc(F)cc2)OC1=O` [EXAMPLE 463, (R)-3-((S)-1-(4′-fluorobiphenyl-4-yl)ethyl)-6-(2-(2-fluoroethylamino)ethyl)-6-(4-fluorophenyl)-1,3-oxazinan-2-one], the pIC50 under setting [1] is more than 7.00. Besides, under setting [4], the inhibition at 0.1 µM stood at 81.3%.

`C[C@@H](c1ccc(Br)cc1)N1CC[C@](CCN2CCOCC2)(c2ccccc2)OC1=O` [EXAMPLE 397, (R)-3-((S)-1-(4-bromophenyl)ethyl)-6-(2-morpholinoethyl)-6-phenyl-1,3-oxazinan-2-one] gave a pIC50 under setting [1] of more than 7.00. For the same compound, the inhibition at 0.1 µM under setting [4] stood at 94.7%.

In turn, `C[C@@H](c1ccc(Br)cc1)N1CC[C@](CCN2CC[C@H](F)C2)(c2ccc(F)cc2)OC1=O` [EXAMPLE 377, (R)-3-((S)-1-(4-bromophenyl)ethyl)-6-(4-fluorophenyl)-6-(2-((S)-3-fluoropyrrolidin-1-yl)ethyl)-1,3-oxazinan-2-one] gave a pIC50 under setting [1] of more than 7.00. Also, under setting [4], the inhibition at 0.1 µM was found to be 72%.

`Cc1ccccc1C1(C)CCN([C@@H](C)c2ccccc2)C(=O)O1` (stereo partly drawn) [EXAMPLE 86, 6-methyl-3-((S)-1-phenylethyl)-6-o-tolyl-1,3-oxazinan-2-one] gave a pIC50 under setting [1] of more than 7.00. Also, the inhibition at 0.1111 µM under setting [3] was 85.7%.

With `CC(=O)N(C)CCC[C@]1(c2ccccc2)CCN([C@@H](C)c2ccc(Br)cc2)C(=O)O1` [EXAMPLE 506, N-(3-((R)-3-((S)-1-(4-bromophenyl)ethyl)-2-oxo-6-phenyl-1,3-oxazinan-6-yl)propyl)-N-methylacetamide], the pIC50 under setting [1] was more than 7.00. Also, the inhibition at 0.1 µM under setting [4] turned out to be 97.7%.

As for `CC(C)(C)OC(=O)N1CCC[C@H](N2CC[C@](CCC(N)=O)(c3ccc(F)cc3)OC2=O)C1` [EXAMPLE 339, (S)-tert-butyl 3-((R)-6-(3-amino-3-oxopropyl)-6-(4-fluorophenyl)-2-oxo-1,3-oxazinan-3-yl)piperidine-1-carboxylate], under setting [1], the negative-log IC50 (pIC50) is more than 7.00. Further, the inhibition at 0.1 µM under setting [4] was 65.9%.

For `CC(C)(O)CC1(c2ccccc2)CCN(c2cccc(-c3ccc(F)cc3F)c2)C(=O)O1` (centres unmarked) [EXAMPLE 117, 3-(2′,4′-difluorobiphenyl-3-yl)-6-(2-hydroxy-2-methylpropyl)-6-phenyl-1,3-oxazinan-2-one], the pIC50 under setting [1] was more than 7.00. For the same compound, under setting [3], the inhibition at 0.1111 µM stood at 82.8%.

Take `COC(=O)c1ccc(-c2cccc(N3CCC(C)(c4ccccc4)OC3=O)c2)cc1` (centres unmarked) [EXAMPLE 46, methyl 3′-(6-methyl-2-oxo-6-phenyl-1,3-oxazinan-3-yl)biphenyl-4-carboxylate]: the pIC50 under setting [1] was 6.00 to 7.00. Also, the inhibition at 0.1111 µM under setting [3] turned out to be 46.4%.

Under setting [1], `NC(=O)c1ccc(-c2ccccc2CN2CCC(CCCO)(c3ccc(F)cc3)OC2=O)cc1` (centres unmarked) [EXAMPLE 386, 2′((6-(4-fluorophenyl)-6-(3-hydroxypropyl)-2-oxo-1,3-oxazinan-3-yl)methyl)biphenyl-4-carboxamide] had a pIC50 of more than 7.00. Besides, the inhibition at 0.1 µM under setting [4] stood at 52.5%.

As to `CC(O)C[C@]1(c2ccc(F)cc2)CCN([C@@H](C)c2ccc(-c3ccc(F)cc3F)cc2)C(=O)O1` (single isomer, unassigned) [EXAMPLE 137 Isomer 1], the pIC50 under setting [1] is more than 7.00.

Consider `C[C@@H](c1ccc(-c2ccc(F)cc2)cc1)N1CC[C@](CCCOP(=O)(O)O)(c2ccccc2)OC1=O` [EXAMPLE 310, 3-((R)-3-((S)-1-(4′-fluorobiphenyl-4-yl)ethyl)-2-oxo-6-phenyl-1,3-oxazinan-6-yl)propyl dihydrogen phosphate], for which, under setting [1], the pIC50 is more than 7.00. The inhibition at 0.1 µM under setting [4] turned out to be 77.5%.

In turn, `C[C@@H](c1ccc(Cl)c(F)c1)N1CC[C@](CCCNS(C)(=O)=O)(c2ccc(F)cc2)OC1=O` [EXAMPLE 535, N-(3-((R)-3-((S)-1-(4-chloro-3-fluorophenyl)ethyl)-6-(4-fluorophenyl)-2-oxo-1,3-oxazinan-6-yl)propyl)methanesulfonamide] showed a pIC50 under setting [1] of more than 7.00. Under setting [4], the inhibition at 0.1 µM stood at 96.8%.

Under setting [1], `CNC(=O)c1cccc(-c2cccc(N3CCC(C)(c4ccccc4)OC3=O)c2)c1` (centres unmarked) [EXAMPLE 31, N-methyl-3′-(6-methyl-2-oxo-6-phenyl-1,3-oxazinan-3-yl)biphenyl-3-carboxamide] had a pIC50 of 6.00 to 7.00. Under setting [3], the inhibition at 0.1111 µM is 27.5%.

Under setting [1], `CSc1ccc(C2(C)CCN([C@@H](C)c3ccccc3)C(=O)O2)cc1` (stereo partly drawn) [EXAMPLE 90, 6-methyl-6-(4-(methylthio)phenyl)-3-((S)-1-phenylethyl)-1,3-oxazinan-2-one] had a pIC50 of more than 7.00. Further, the inhibition at 0.1111 µM under setting [3] is 83.1%.

`CC1(c2cccc(Cl)c2)CCN(c2cccc(N3CCCCC3)n2)C(=O)O1` (centres unmarked) [EXAMPLE 53, 6-(3-chlorophenyl)-6-methyl-3-(6-(piperidin-1-yl)pyridin-2-yl)-1,3-oxazinan-2-one] showed a pIC50 under setting [1] of more than 7.00. For the same compound, under setting [6], the inhibition at 0.1111 µM was 57.1%.

Under setting [1], `CC(C[C@]1(c2ccc(F)cc2)CCN([C@@H](C)c2ccc(Br)cc2)C(=O)O1)C(N)=O` (single isomer, unassigned) [EXAMPLE 523 Isomer 1] had a pIC50 of more than 7.00. For the same compound, the inhibition at 0.1 µM under setting [4] was determined as 94.5%.

As to `CC1(c2ccccc2)CCN(c2cccc(-c3cc(F)ccc3F)c2)C(=O)O1` (centres unmarked) [EXAMPLE 26, 3-(2′,5′-difluorobiphenyl-3-yl)-6-methyl-6-phenyl-1,3-oxazinan-2-one], the pIC50 under setting [1] is more than 7.00. Also, the inhibition at 0.1 µM under setting [5] was found to be 88.2%. Further, the inhibition at 0.1111 µM under setting [3] was 87%.

For `C[C@@H](c1ccc(Br)cc1)N1CC[C@](CC(C)(C)NC(=O)C(C)(C)C)(c2ccccc2)OC1=O` [EXAMPLE 693, N-(1-((S)-3-((S)-1-(4-bromophenyl)ethyl)-2-oxo-6-phenyl-1,3-oxazinan-6-yl)-2-methylpropan-2-yl)pivalamide], the pIC50 (microsomes from CHO cells overexpressing human 11β-HSD1) is less than 7.00. In addition, under “read-out: Average % inhibition at 100 nM, 100 nM compound, microsomes from CHO cells overexpressing human 11β-HSD1”, the inhibition at 0.1 µM was 17.6%.

With `CNCC(O)C[C@]1(c2ccc(F)cc2)CCN([C@@H](C)c2ccc(-c3ccc(F)cc3F)cc2)C(=O)O1` (stereo partly drawn) [EXAMPLE 265, (6S)-3-((S)-1-(2′,4′-difluorobiphenyl-4-yl)ethyl)-6-(4-fluorophenyl)-6-(2-hydroxy-3-(methylamino)propyl)-1,3-oxazinan-2-one], the negative-log IC50 (pIC50) under setting [1] was more than 7.00. In addition, the inhibition at 0.1 µM under setting [5] came to 56.8%.

The values above are taken from US8575156B2, “Cyclic inhibitors of 11β-hydroxysteroid dehydrogenase 1” (Vitae Pharmaceuticals, Inc., priority 2007, dated 2013).
